Data: PubChem BioAssay AID732 (Emory University Molecular Libraries Screening Center, 2007)
“And” between values parts separate entries of the source, which are not always exact repeats. Identical values can stand only once. The source made the active and inactive calls. The rule behind the calls is not given here.

test system: in vivo angiogenesis, blood vessel count; assay: reduction of blood vessel formation in vivo – HTS, in vivo study (AID 732); settings: hits give low values;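 tested at 30 µM in the well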;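 note: zebrafish embryos dosed at one day post fertilization; 0% = reference inhibitor and 100% = plate mean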

Row | Compound | vessel count % control
1 | CCCn1c(=O)c2[nH]c(C3CCCC3)nc2n(CCCOC(=O)c2ccc(S(=O)(=O)F)cc2)c1=O | 117% (inactive)
2 | CC(C)NCC(O)COc1cccc2[nH]ccc12 (stereo unspecified) | 90.8% (inactive)
3 | O=C(Nc1ccccc1)c1cc([N+](=O)[O-])ccc1Cl | 90.3% (inactive)
4 | CO[C@@]1(NC(=O)CSCC#N)C(=O)N2C(C(=O)O)=C(CSc3nnnn3C)CS[C@@H]21 | 122% (inactive)
5 | CC1(C)C(=O)N(CCN2CCC(C(=O)c3ccc(F)cc3)CC2)c2ccccc21 | 118% (inactive)
6 | C#CCN[C@H](C)Cc1ccccc1 | 114% (inactive)
7 | CCCC(=O)NCCc1c2n(c3ccc(OC)cc13)CCCc1ccccc1-2 | 92.5% (inactive)
8 | O=C1C(c2c(O)[nH]c3ccc(Cl)cc23)=Nc2ccccc21 | 87.6% (inactive)
9 | CC(C(=O)O)c1ccc(CC2CCCC2=O)cc1 (stereo unspecified) | 113% (inactive)
10 | C[C@H](Cc1ccccc1)Nc1ncnc2c1ncn2[C@@H]1O[C@H](CO)[C@H](O)C1O (stereo partly specified) | 99.9% (inactive)
11 | Cn1c(=O)c2[nH]c(-c3ccc(S(=O)(=O)O)cc3)nc2n(C)c1=O | 106% (inactive)
12 | O=C(O)CCCCCC[C@H]1C(=O)NC(=O)N1CC[C@@H](O)C1CCCCC1 | 93.1% (inactive)
13 | Cc1[nH]c(=O)c(C#N)cc1-c1ccncc1 | 84.9% (inactive)
14 | CC1CCN=C(N)S1 (stereo unspecified) | 92% (inactive)
15 | CO/N=C(\C(=O)N[C@@H]1C(=O)N2C(C(=O)O)=C(COC(C)=O)CS[C@H]12)c1csc(N)n1 (stereo in doubt) | 104% (inactive)
16 | CCCCCC(O)CCCC(=O)O (stereo unspecified) | 101% (inactive)
17 | COC(=O)[C@@H](N)CCCN=C(N)N[N+](=O)[O-] | 95% (inactive)
18 | CC1=C(C(=O)O)N2C(=O)[C@@H](NC(=O)C(N)c3ccccc3)[C@H]2SC1 (stereo partly specified) | 93.6% (inactive)
19 | O=C(Nc1cc(C(=O)Nc2ccc(S(=O)(=O)O)cc2S(=O)(=O)O)cc(C(=O)Nc2ccc(S(=O)(=O)O)cc2S(=O)(=O)O)c1)Nc1cc(C(=O)Nc2ccc(S(=O)(=O)O)cc2S(=O)(=O)O)cc(C(=O)Nc2ccc(S(=O)(=O)O)cc2S(=O)(=O)O)c1 | 118% (inactive)
20 | COc1cc2nc(N3CCN(C(=O)OCc4ccccc4)C(C(=O)NC(C)(C)C)C3)nc(N)c2cc1OC (stereo unspecified) | 104% (inactive)
21 | CC(COc1ccc(/C=C/c2ccccc2)cc1)[N+](C)(C)C (stereo unspecified) | 106% (inactive)
22 | O=C1NC(=O)C(c2ccccc2)(c2ccccc2)N1 | 92.7% (inactive)
23 | Cc1c(OCC(F)(F)F)ccnc1CS(=O)c1nc2ccccc2[nH]1 (stereo unspecified) | 76.7% (inactive)
24 | N[C@@]1(C(=O)O)CC[C@@H](C(=O)O)C1 | 102% (inactive)

Row | Compound | vessel count % control
25 | Cc1cccc(/C=C/c2ccccc2)n1 | 74.2% (inactive)
26 | CC1=NN=C(c2ccc(N)cc2)c2cc3c(cc2C1)OCO3 | 96.1% (inactive)
27 | N[C@@H](CS(=O)O)C(=O)O | 111% (inactive)
28 | Nc1nc(Cl)nc2c1ncn2[C@@H]1O[C@H](CO)[C@H](O)C1O (stereo partly specified) | 107% (inactive)
29 | C[C@]12Cc3cn4c(nc3C=C1CCC1C2CC[C@@]2(C)[C@H]1CC[C@@]2(O)C#N)nc1ccccc14 (stereo partly specified) | 97% (inactive)
30 | NC(=NCCC[C@H](N)C(=O)O)N[N+](=O)[O-] | 96.2% (inactive)
31 | Nc1nc2[nH]c(=O)cnc2c(=O)[nH]1 | 140% (inactive)
32 | C[C@@H]1O[C@H](C[N+](C)(C)C)C[C@H]1O | 104% (inactive)
33 | CC[C@H](C)C(=O)O[C@H]1CCC=C2C=C[C@H](C)[C@H](CC[C@@H]3C[C@@H](O)CC(=O)O3)[C@H]21 | 88.5% (inactive)
34 | CCCCc1ccc(C(=O)O)nc1 | 115% (inactive)
35 | CC(C)(C)NCC(O)c1ccc(O)c(CO)c1 (stereo unspecified) | 122% (inactive) and 102% (inactive)
36 | NC(N)=Nc1nc(CSCC/C(N)=N/S(N)(=O)=O)cs1 | 113% (inactive)
37 | CC1OC1P(=O)(O)O (stereo unspecified) | 102% (inactive)
38 | NC(=O)c1cccc(N)c1 | 117% (inactive)
39 | CC[C@H]1CN2CCc3cc(OC)c(OC)cc3[C@@H]2C[C@@H]1C[C@H]1NCCc2cc(OC)c(OC)cc21 | 103% (inactive)
40 | N#CC(C#N)=Cc1cc(O)c(O)c(O)c1 | 107% (inactive)
41 | O=C1CC[C@@]2(O)C3Cc4ccc(O)c5c4C2(CCN3CC2CC2)[C@H]1O5 (stereo partly specified) | 73.7% (inactive)
42 | CCC1(C)CC(=O)NC1=O (stereo unspecified) | 95.8% (inactive)
43 | CCCCN1CCC(n2c(=O)[nH]c3ccccc32)CC1 | 67.2% (inactive)
44 | CC[N+](C)(C)c1cccc(O)c1 | 114% (inactive)
45 | COC(=O)c1c(-c2cc(OC)c(OC)c(OC)c2)c2ccnc(OCc3ncccn3)c2c(=O)n1Cc1ccnc(C)c1 | 99.4% (inactive)
46 | N#Cc1c(-c2ccccc2)no[n+]1[O-] | 120% (inactive)
47 | NC(N)=NC(=O)Cc1c(Cl)cccc1Cl | 119% (inactive)
48 | NC(N)=NCCCCN=C(N)N | 88% (inactive)

Row | Compound | vessel count % control
49 | N[C@H](CCCCCP(=O)(O)O)C(=O)O | 84.2% (inactive)
50 | CC(C)CC(NP(=O)(O)O[C@@H]1O[C@@H](C)[C@H](O)[C@@H](O)[C@H]1O)C(=O)NC(Cc1c[nH]c2ccccc12)C(=O)O (stereo partly specified) | 118% (inactive)
51 | N[C@@H]1CONC1=O | 90.5% (inactive)
52 | COc1cc2nc(N3CCN(C(=O)C4COc5ccccc5O4)CC3)nc(N)c2cc1OC (stereo unspecified) | 103% (inactive)
53 | Cc1cn([C@H]2C=C[C@@H](CO)O2)c(=O)[nH]c1=O | 99.1% (inactive)
54 | NC(CO)C(=O)NNCc1ccc(O)c(O)c1O (stereo unspecified) | 120% (inactive)
55 | O=C(OCCN1CCOCC1)C1(c2ccccc2)CCCCC1 | 91.6% (inactive)
56 | CCCCCC[C@@H]([C@@H](C)O)n1cnc2c(N)ncnc21 | 85.8% (inactive)
57 | Nc1ccn([C@@H]2O[C@H](CO)[C@@H](O)[C@@H]2O)c(=O)n1 | 104% (inactive)
58 | CCSC(=N)N | 62.2% (inactive)
59 | CN(C)CCN(Cc1cccs1)c1ccccn1 | 110% (inactive)
60 | Cn1c(=O)c2c(nc(/C=C/c3cccc(Cl)c3)n2C)n(C)c1=O | 72.9% (inactive)
61 | CN1CCN(C2Cc3ccccc3Sc3ccc(Cl)cc32)CC1 (stereo unspecified) | 120% (inactive)
62 | CCCCS(=N)(=O)CC[C@H](N)C(=O)O (stereo partly specified) | 93% (inactive)
63 | CNCCCN1c2ccccc2CCc2ccccc21 | 82.9% (inactive)
64 | CC(C)COCC(CN(Cc1ccccc1)c1ccccc1)N1CCCC1 (stereo unspecified) | 104% (inactive)
65 | N#CC(C#N)=Cc1ccc([N+](=O)[O-])c(O)c1 | 88.6% (inactive)
66 | Nc1nc2ccc(Cl)cc2c2nc(-c3ccco3)nn12 | 95.7% (inactive)
67 | N[C@H](CCC(=O)NCS(=O)(=O)O)C(=O)O | 102% (inactive)
68 | O=C(CCCN1CCC(O)(c2ccc(Cl)cc2)CC1)c1ccc(F)cc1 | 77.9% (inactive)
69 | Fc1ccc(C(OCCN2CCN(CCCc3ccccc3)CC2)c2ccc(F)cc2)cc1 | 71.4% (inactive)
70 | N[C@@H](COP(=O)(O)O)C(=O)O | 105% (inactive)
71 | C[C@@H](Oc1ccc(Oc2cnc3ccc(Cl)cc3n2)cc1)C(=O)O | 80.3% (inactive)
72 | CC(=O)OCC(=O)[C@@]1(O)CC[C@H]2[C@@H]3CCC4=CC(=O)CC[C@]4(C)[C@H]3C(=O)C[C@@]21C | 97.3% (inactive)

Row | Compound | vessel count % control
73 | Nc1ncn([C@@H]2O[C@H](CO)[C@@H](O)[C@H]2O)c(=O)n1 | 65.2% (inactive)
74 | O=C1O/C(=C/Br)CCC1c1cccc2ccccc12 (stereo unspecified) | 87.4% (inactive)
75 | C[C@@H]1O[C@@H](O[C@H]2C[C@@H](O)[C@]3(CO)[C@@H]4C(CC[C@]3(O)C2)[C@@]2(O)CC[C@H](C3COC(=O)C3)[C@@]2(C)C[C@H]4O)[C@H](O)[C@H](O)[C@H]1O (stereo partly specified) | 104% (inactive)
76 | COc1cc(CCN)ccc1O | 124% (inactive)
77 | Oc1[nH]c2c(Cl)cc(Cl)cc2c1C1=Nc2ccc(Br)cc2/C1=N\OCCN1CCNCC1 | 90.9% (inactive)
78 | CC(N)C1CCC(C(=O)Nc2ccncc2)CC1 (stereo unspecified) | 111% (inactive)
79 | CC#CCOC(=O)c1c(C)nc2sc3c(c2c1N)CCC(O)C3 (stereo unspecified) | 116% (inactive)
80 | O=[N+]([O-])c1ccc2nc(N3CCNCC3)ccc2c1 | 118% (inactive)
81 | CCC1(O)CC2CN(CCc3c([nH]c4ccccc34)[C@@](C(=O)OC)(c3cc4c(cc3OC)N(C=O)C3[C@]45CCN4CC=C[C@@](CC)([C@@H](OC(C)=O)[C@]3(O)C(=O)OC)[C@H]45)C2)C1 (stereo partly specified) | 109% (inactive)
82 | CCCCCN(CCCCC)C(=O)C(CCC(=O)O)NC(=O)c1ccc(Cl)c(Cl)c1 (stereo unspecified) | 81.3% (inactive)
83 | O=c1[nH]oc2c1CCNC2 | 103% (inactive)
84 | N[C@@H](Cc1cnc[nH]1)C(=O)O | 107% (inactive)
85 | CC(N)Cc1c[nH]c2ccc(OCc3cccs3)cc12 (stereo unspecified) | 107% (inactive)
86 | C=CCN1CCC2(C)c3cc(O)ccc3CC1C2C (stereo unspecified) | 109% (inactive)
87 | O=C(O)c1cccnc1Nc1cccc(C(F)(F)F)c1 | 102% (inactive)
88 | N[C@@H](CCCC(=O)O)C(=O)O | 130% (inactive)
89 | O=C(O)/C=C/C(O)c1ccc(Cl)cc1 (stereo unspecified) | 115% (inactive)
90 | c1ccc(C2CN3CCSC3=N2)cc1 (stereo unspecified) | 95.6% (inactive)
91 | CC(N)=NCCCC[C@@H](N)C(=O)O | 86.6% (inactive)
92 | Oc1[nH]c2c(Cl)cc(Cl)cc2c1C1=Nc2ccc(Br)cc2/C1=N\OCCN1CCCC1 | 93.4% (inactive)
93 | NCCc1ccc(O)cc1 | 90.2% (inactive)
94 | N[C@H](C(=O)O)[C@H](O)C(=O)O | 90.4% (inactive)
95 | CCN(CC)C(=O)N[C@@H]1C=C2c3cccc4[nH]cc(c34)C[C@H]2N(C)C1 | 75.3% (inactive)
96 | N#CC(C#N)=Cc1ccc(O)c(O)c1 | 119% (inactive)
